The values below are quoted from earlier work in publication PMC13468302, “African Polyherbal Formulations for Type 2 Diabetes: A Systematic Review and Meta-Analysis of Efficacy, Mechanisms, and Therapeutic Potential” (Plants, 2026).

In series [1] the test system is HFD + STZ (45 mg/kg)-induced diabetic Sprague Dawley rats. To be noted: UL 100 mg/kg, metformin 50 mg/kg, UL+Met 100/50 mg/kg, insulin 2U; 28 days; ref [44].
Series [2] deals with alloxan-induced diabetic Wistar rats. To be noted: combination at 400 mg/kg; 21 days; ref [49].
The test system is the same in series [3]. To be noted: 300 mg/kg each orally, 21 days; ref [53].

In the case of `CN(C)C(=N)N=C(N)N` [metformin], the fasting glucose change in series [1] was −15.34%.
On to `COc1ccc(Cl)cc1C(=O)NCCc1ccc(S(=O)(=O)NC(=O)NC2CCCCC2)cc1` [glibenclamide], for which, in series [2], the serum glucose reduction is listed as 56.5%.
Regarding insulin, in series [1], the fasting glucose change is given as −35.65%. For the same compound, in series [3], the glucose reduction is reported as 69.1%.
